Test results taken from paper PMC7696255, “In-Silico Identified New Natural Sortase A Inhibitors Disrupt S. aureus Biofilm Formation” (International Journal of Molecular Sciences, 2020).
Converted amounts (≈) assume the structure as drawn. Like-named read-outs stand apart in the source and are kept apart here.

Columns and labels:
S. aureus sortase A [1] = target: T1, S. aureus sortase A (Staphylococcus aureus, UniProt Q2FV99); assay: SrtA enzyme inhibition FRET assay, 5-FAM/QXL 520 substrate; type: biochemical; conditions: Sortase A IC50, 5-FAM/QXL substrate; 10 min
T1 construct: purchased AnaSpec AS-72229
T1 sequence (Q2FV99 whole entry): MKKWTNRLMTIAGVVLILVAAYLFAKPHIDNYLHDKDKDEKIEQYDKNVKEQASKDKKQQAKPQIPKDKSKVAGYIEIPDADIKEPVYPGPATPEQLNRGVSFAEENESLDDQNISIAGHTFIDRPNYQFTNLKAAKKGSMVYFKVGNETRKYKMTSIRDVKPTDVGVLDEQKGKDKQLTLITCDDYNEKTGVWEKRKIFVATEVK
Procedure: (§1) The enzymatic reactions were carried out in black, low-binding polystyrene 384 well plates (Greiner Bio-One). […] SrtA was pre-incubated in the reaction buffer with compounds for 1 h at room temperature prior to the addition of the FRET substrate. Assays were performed in 50 µL reactions with 50 ng of S. aureus sortase A and 25 µM of DABCYL-LPETG-EDANS substrate or 1 µM of 5-FAM/QXL^TM 520 substrate. The inhibitory activity of the compounds was determined by monitoring the rise in fluorescence intensity over 24 h at Ex/Em = 336 nm/490 nm for the DABCYL/EDANS substrate and Ex/Em = 490 nm/520 nm for the 5-FAM/QXL 520 substrate on a Tecan Infinite M1000 Pro reader.
(§2) Raw fluorescence data were corrected for autofluorescence before computing percentage inhibition values. These percentage inhibition values were plotted against compound concentration using GraphPad Prism version 8.0 by nonlinear regression analysis using least squares fit method for IC50 determination. Testing was performed twice to ensure reproducibility of results.

[2] = system: S. aureus Newman biofilm formation; assay: Biofilm inhibitory assay (crystal violet), biofilm formation; type: cell-based, Staphylococcus aureus; conditions: CV assay
Procedure: (§3) The effectiveness of SrtA inhibitors in reducing biofilm formation and growth was assessed using the crystal violet (CV) biofilm assay with the following modifications. TSB with 2% glucose (TSB without glucose for E. coli) was inoculated with 10^5 CFU/mL of S. aureus and E. coli overnight cultures. A total of 90µl of this cell suspension was then dispensed into 96-well microtiter plates containing 10 µL of different concentrations of the SrtA inhibitors. After 24 h growth at 37 °C the plates were washed with PBS to remove unbound cells and heat fixed at 60 °C for 30 min. Next, the wells were stained with 0.1% crystal violet solution for 15 min at room temperature. At the completion of the incubation plates were washed 3 times with PBS and dried. Then the crystal violet dye from the biofilm was solubilized with 200 µL of DMSO. A total of 100 µL of this solution was then moved to a new microtiter plate for absorbance measurement at 595 nm. For pre-formed biofilm assay, the plates were prepared and incubated as mentioned earlier, without SrtA inhibitors. After 24 h incubation, the culture supernatant was removed gently and biofilm carefully washed with sterile PBS. Next, 10 µL of different concentrations of SrtA inhibitors with 90 µL of TSB with 2% glucose were added carefully into the wells and incubated at 37 °C for 24 h. The amount of crystal violet staining of biofilm was measured as described above. The results were reported as percent inhibition normalized to the wild type control. Two independent experiments were performed in triplicate to ensure reproducibility.

[3] = system: S. aureus ATCC 33591 (MRSA) biofilm formation; assay: as above; type: cell-based, Staphylococcus aureus
Procedure: as §3

[4] = system: S. aureus Newman pre-formed biofilms; assay: Biofilm inhibitory assay (crystal violet), pre-formed biofilms; type: cell-based, Staphylococcus aureus; conditions: CV assay
Procedure: as §3

[5] = system: S. aureus ATCC 33591 (MRSA) pre-formed biofilms; assay: as above; type: cell-based, Staphylococcus aureus
Procedure: as §3

S. aureus Newman = assay: S. aureus whole cell assay (MIC, microbroth dilution); type: cell-based, Staphylococcus aureus; conditions: 24 h
Procedure: (§4) Minimum inhibitory concentration (MIC) tests were performed according to procedures of the Clinical Laboratory Standards Institute (CLSI) with minor changes using the microbroth dilution technique in a 384-well setup. Inoculum of each S. aureus strain was prepared by suspending segregated colonies in sterile saline to a 0.5 McFarland standard. An inoculum of 2–8 × 10^5 CFU/mL was incubated with the compounds for 24 h at 37 °C. Gentamicin (data not shown) was incubated in the same manner as the test compounds and served as a positive control. The effect of the compounds on bacterial growth was calculated by quantifying the optical density at 600 nm on a microplate reader (Tecan, Infinite M1000, Salzburg, Austria). Dilutions of the inoculum were cultivated on agar to verify the validity of the inoculum seeding density and absence of contamination. All tests were executed in triplicate during two separate experiments.

S. aureus ATCC 25923 = assay: as above; type: cell-based, Staphylococcus aureus
Procedure: as §4

[6] = system: S. aureus ATCC 33591 (MRSA); assay: as above; type: cell-based, Staphylococcus aureus; conditions: 24 h
Procedure: as §4

[7] = system: adherence of S. aureus Newman to fibrinogen; assay: Fibrinogen binding assay; type: cell-based, Staphylococcus aureus
Procedure: Fibrinogen binding assay was completed as described but with slight revision. A flat-bottom 96-well plate was covered with fibrinogen protein by adding 50 µL of 20 µg/mL of fibrinogen protein from bovine plasma diluted in saline and incubated at 4 °C for 24 h. The coated plates were gently rinsed twice with PBS and blocked for 60 min with 4% bovine serum albumin (BSA). The plates were then washed 3 times with PBS. For this assay, S. aureus Newman strain was cultivated in TSB at 37 °C to exponential phase (OD600 = 0.5) and then the bacterial culture was incubated with various concentrations of test compound or control for 2.5 h. Then the cells were pelleted by centrifugation at 10,000× g for 10 min, the supernatants were removed and the cell pellets stored at −20 °C. The following day, cell pellets were suspended in PBS and dispersed in 100 μL aliquots to distinct wells of fibrinogen-coated 96-well plates. After 2 h of growth at 37 °C, the bacterial supernatant was discarded and the wells were rinsed gently with 150 µl PBS. Then the bacterial cells were fixed with 2% (v/v) glutaraldehyde and incubated for 30 min at 25 °C. After a wash with PBS, bound cells were stained with 0.1% crystal violet dye for 15 min. Plates were rinsed twice again with PBS, enclosed with aluminum foil, then stored at room temperature to dry overnight. On the next day absorbance was measured at 570 nm. The results were described as the percent of adhesion inhibition normalized to the wild type control. Two independent experiments were performed in triplicate to ensure reproducibility.

HepG2 cells = assay: Mammalian cell cytotoxicity assay (PrestoBlue); type: cell-based, human; conditions: read-out: Mammalian cell lines IC50
Procedure: (§5) A549 and HepG2 cells were seeded at 1500 and 2500 cells per well, respectively, in 384-well microplates and incubated at 37 °C in the presence of 5% CO2. The next day, cells were treated with compounds then incubated for an additional 72 h. To assess the cytotoxic effect of the compounds PrestoBlue cell viability reagent (Life Technologies, Carlsbad, CA, USA) was used. After the 72 h incubation with compounds, the 384-well assay plates were incubated with this viability indicator dye for 2 h (A549) and 4 h (HepG2) before fluorescence reading at Ex/Em = 560 nm/590 nm on the Tecan Infinite M1000 Pro reader. Puromycin (data not shown) was used as the positive control against both cell lines. All tests were executed in triplicate on two separate experiments.

A549 cells = assay: Mammalian cell cytotoxicity assay (PrestoBlue); type: cell-based, human; conditions: read-out: Mammalian cell lines IC50
Procedure: as §5

S. aureus sortase A [8] = target: T1, S. aureus sortase A; assay: SrtA enzyme inhibition FRET assay, DABCYL-LPETG-EDANS substrate; type: biochemical
Procedure: as §1, §2

[9] = system: E. coli ATCC 25922 biofilm formation; assay: Biofilm inhibitory assay (crystal violet), biofilm formation; type: cell-based; conditions: in words; CV assay
Procedure: as §3, with “Next, 10 µL of different concentrations of SrtA inhibitors with 90 µL of TSB with 2% glucose were added carefully into the wells and incubated at 37 °C for 24 h.” left out, “The results were reported as percent inhibition normalized to the wild type control. Two independent experiments were performed in triplicate to ensure reproducibility.” left out

SMILES: CC(C)CCCc1c(O)ccc(C(=O)c2cc(Cl)c(Cl)[nH]2)c1O [Compound N2576, (4,5-dichloro-1H-pyrrol-2-yl)-[2,4-dihydroxy-3-(4-methyl-pentyl)-phenyl]-methanone]
- IC50 (S. aureus sortase A [1]): 32 ± 6.3 µM
- concentration giving >90% inhibition of biofilm formation [2]: 4.4 µM
- IC50 ([2]; Staphylococcus aureus, NEWMAN, biofilm formation, read-out: Biofilm Inhibition IC50): 2.9 µM
- concentration giving >90% inhibition on MRSA biofilm formation ([3]; CV assay): 70 µM
- IC50 ([3]; Staphylococcus aureus, S. aureus ATCC 33591 (MRSA), biofilm formation, read-out: Biofilm Inhibition IC50): 24.8 µM
- concentration giving >90% inhibition on preformed biofilms [4]: 17 µM
- IC50 ([4]; Staphylococcus aureus, pre-formed biofilms, read-out: Biofilm Inhibition IC50): 10 µM
- concentration giving >90% inhibition on MRSA preformed biofilms ([5]; CV assay): 280 µM
- IC50 ([5]; Staphylococcus aureus, S. aureus ATCC 33591 (MRSA), pre-formed biofilms, read-out: Biofilm Inhibition IC50): > 200 µM
- S. aureus MIC (S. aureus Newman; Newman): 5 to 8 µM
- MIC (S. aureus Newman; Staphylococcus aureus, NEWMAN): 5.8 ± 1.3 µM (≈ 2.07 µg/mL)
- S. aureus MIC (S. aureus ATCC 25923; 24 h): 5 to 8 µM
- MIC (S. aureus ATCC 25923; Staphylococcus aureus, ATCC25923, 24 h): 6.3 ± 0.1 µM (≈ 2.24 µg/mL)
- S. aureus MIC [6]: 25 to 80 µM
- MIC ([6]; Staphylococcus aureus): 25.2 ± 5.5 µM (≈ 8.98 µg/mL)
- IC50 ([7]; Staphylococcus aureus, NEWMAN, read-out: Fibrinogen adherence Inhibition IC50): 5.7 ± 0.8 µM
- concentration giving ≥90% prevention of S. aureus Newman adherence to fibrinogen ([7]; compared to untreated wildtype strain): 17 µM
- IC50 (HepG2 cells; 72 h): 60 to 90 µM
- IC50 (HepG2 cells; Homo sapiens, HepG2, 72 h): 65 ± 7.4 µM
- IC50 (A549 cells; 72 h): 60 to 90 µM
- IC50 (A549 cells; Homo sapiens, A549, 72 h): 88.1 ± 13 µM
- IC50 (S. aureus sortase A [8]; Sortase A IC50, DABCYL-LPETG-EDANS substrate, 4 h): 47 ± 4.2 µM
- IC50 (S. aureus sortase A [8]; SrtA enzymatic activity IC50, text summary, Figure 2A,B, both substrates): < 50 µM
- effect on E. coli ATCC 25922 biofilm formation [9]: did not show any effect
